Laboratory results as given in patent publication US20260028334A1, “N-(3-(BENZO[B]THIOPHENE-2-CARBOXAMIDO)-PHENYL)-2,3-DIHYDROBENZO[B][1,4]DIOXINE-6-CARBOXAMIDE DERIVATIVES AND RELATED COMPOUNDS AS LACTATE/ATP PRODUCTION INHIBITORS FOR THE TREATMENT OF CANCER” (WMT Aktiengesellschaft, priority 2022, published 2026).

How the values were obtained:
lactate production = experiment: Lactate production inhibition assay; assay type: cell-based; conditions: summary of Table 1
Source text: (§1) Recombinant Lactate Dehydrogenase A (LDHA) was used to convert lactate in tissue culture supernatants to pyruvate, with the concomitant reduction of NAD^+ to NADH. The electron acceptor 1-methoxyphenazine methosulfate (MPMS) was then reduced by the generated NADH, thereby regenerating NAD+. Reduced 1-methoxyphenazine methosulfate is used in turn to reduce Water Soluble Tetrazolium 8 (WST8) to an orange WST8 formazan product. The assay is adapted from the publication “Application of WST-8 based colorimetric NAD(P)H detection for quantitative dehydrogenase assays” described in Chamchoy et al., BMC Biochemistry (2019) 20(1):4.
(§2) Cells were plated at 4,000 per well in 96-well plate in a medium of high glucose DMEM (PAN) supplemented with 10% FBS (PAN), 2 mM glutamine-alanine (PAN), 2 mM pyruvate (Sigma) and 10 mL/L penicillin-streptomycin (PAN) and grown at 37° C. in 0.5% O2, 5% CO2 and 75% humidity. For hypoxia, cells were grown and treated in the Whitley H35 Hypoxystation (Don Whitley Scientific) at 37° C. in 0.5% O2, 5% CO2 and 75% humidity. The next day, cells were induced with test compounds (FIG. 2: compounds of examples 3/16, 3/8, 10 at 10000, 3333, 1111, 370, 123, 41, 14, 5 and 1.5 nM; FIG. 7: compounds of examples 3/16, 3/8, 10 at 41, 14, 4.6 nM and Phenformin at 100, 50, 25, 12.5, 6.25 μM; FIGS. 8C and 8D: compounds of example 3/16, 3/8, 10, 3/19, 30 and 30/2 at 10000, 3333, 1111, 370, 123, 41, 14, 5 and 1.5 nM), as well as with vehicle (DMSO) only, for 48 hours. After this time, the medium was removed from the cells to measure extracellular lactate. To detect extracellular lactate, cell supernatants are diluted 1:5 in assay buffer (0.2 M tris, pH 8.2) by adding 10 μl cell supernatant+40 μl buffer in a 96-well plate. Assay substrate mix is prepared by adding NAD+ (3.75 mM), WST-8 (0.9 mM), MPMS (10 mM) and recombinant LDHA, expressed in E. coli as an N-terminal hexahistidine tagged fusion protein, is added to a final concentration of 0.8 μg/ml in assay buffer. Thereafter, 80 μl of substrate mix is added to 20 μl of diluted cell supernatant in a 96-well flat-bottomed plate and the absorbance at 460 nm determined at one minute intervals over a 30 minute period. A standard curve of known lactate concentrations of 10, 8, 6, 4, 1, 0.5 and 0.25 mM was constructed for each assay plate.

Panc02 and SKOV3 cells [1] = experiment: Assay for inhibition of ATP production (FIGS. 8A and 8B); assay type: cell-based; conditions: 48 hours treatment, 1.5 to 10000 nM
Procedure: The assay determines the amount of ATP in cells in culture.
Cells were plated at 4,000 per well in 96-well plate in a medium of high glucose DMEM (PAN) supplemented with 10% FBS (PAN), 2 mM glutamine-alanine (PAN), 2 mM pyruvate (Sigma) and 10 mL/L penicillin-streptomycin and grown at 37° C. in 0.5% O2, 5% CO2 and 75% humidity. For hypoxia, cells were grown and treated in the Whitley H35 Hypoxystation (Don Whitley Scientific) at 37° C. in 0.5% O2, 5% CO2 and 75% humidity. The next day, cells were induced with test compounds (FIG. 1: compounds of examples 3/16, 3/8, 10 at 10000, 3333, 1111, 370, 123, 41, 14, 5 and 1.5 nM; FIGS. 8A and 8B: compounds of example 3/19, 30 and 30/2 at 10000, 3333, 1111, 370, 123, 41, 14, 5 and 1.5 nM), as well as with vehicle (DMSO) only, for 48 hours. After this time, the medium was removed from the cells and intracellular ATP levels were determined using the Promega CellTiter-Glo 2.0 assay protocol (Promega, G9241). To estimate the effect of compounds on the ATP production, sample values were compared to the values of DMSO only. IC50 values were generated by plotting the luciferase counts against compound concentration.

Panc02 and SKOV3 cells [2] = experiment: Lactate production inhibition assay (FIGS. 8C and 8D); assay type: cell-based; conditions: 48 hours treatment, 1.5 to 10000 nM
Source text: as §1, §2

[3] = test system: ER stress markers CHAC and CHOP/DDIT3; experiment: Gene expression analysis by qPCR (FIG. 8E-8AB); assay type: cell-based; conditions: Panc02 and SKOV3 cells, 10 nM, 0.5, 1, 2 and 4 hours
Procedure: Cells were plated at 40,000 cells per ml in medium of high glucose DMEM (PAN) supplemented with 10% FBS (PAN), 2 mM glutamine-alanine (PAN), 2 mM pyruvate (Sigma) and 10 mL/L penicillin-streptomycin (PAN), and grown at 37° C. in 0.5% O2, 5% CO2 and 75% humidity. Next day, cells were induced with test compounds (FIG. 3: compounds of example 3/16, 3/8, 10 at 10 nM; FIG. 8E-8AB: compounds of example 3/16, 3/8, 10, 3/19, 30 and 30/2 at 10 nM) 0.5, 1, 2 and 4 hours, as well as with vehicle (DMSO) only. After this time, the cells were lysed according to protocol (Promega, SV 96 Total RNA Isolation System, #Z3505). After transferring the lysate to a 96-well-RNA binding plate, RNA was isolated and put at approx. 1 μg into cDNA synthesis using LunaScript RT SuperMix Kit (NEB, #E3010). The resulting cDNA was diluted 1:5 and used for qPCR Analysis (Taqman). Luna Universal Probe qPCR Master Mix (NEB, #M3004) is used as 2× reaction mix to which the diluted cDNA is added. The qPCR analysis was performed using QuantStudio™ 6 Flex real-time PCR systems (Thermo Fisher Scientific).
A set of primers plus probe for each gene of interest was purchased at IDT (Integrated DNA Technologies).

[4] = patients treated with the drug; cited from earlier work

Row | Structure (SMILES) | activity in inhibiting production of ATP and/or lactate (lactate production) | ATP production level (Panc02 and SKOV3 cells [1]) | lactate levels (Panc02 and SKOV3 cells [2]) | ER stress markers CHAC and CHOP/DDIT3 [3] | incidence of lactic acidosis [4]
1 | O=C(Nc1ccc(F)c(NC(=O)c2cc3ccc(OCC(O)CN4CCCC4)cc3s2)c1)c1ccc2c(c1)OCCO2 (racemic) [Example 30, N-(4-Fluoro-3-(6-(2-hydroxy-3-(pyrrolidin-1-yl)propoxy)benzo[b]thiophene-2-carboxamido)phenyl)-2,3-dihydrobenzo[b][1,4]dioxine-6-carboxamide] | high activity | dose-dependent reduction | dose-dependent downregulation | time-dependent upregulation | –
2 | O=C(Nc1ccc(F)c(NC(=O)c2cc3ccc(OC[C@H](O)CN4CCCC4)cc3s2)c1)c1ccc2c(c1)OCCO2 (single isomer, unassigned) [Example 30/2, N-(4-Fluoro-3-(6-(2-hydroxy-3-(pyrrolidin-1-yl)propoxy)benzo[b]thiophene-2-carboxamido)phenyl)-2,3-dihydrobenzo[b][1,4]dioxine-6-carboxamide] | high activity | dose-dependent reduction | dose-dependent downregulation | time-dependent upregulation | –
3 | CCN1CCN(Cc2ccc3cc(C(=O)Nc4cc(NC(=O)c5ccc6c(c5)OCCO6)ccc4F)sc3n2)CC1 [3/19] | high activity | dose-dependent reduction | dose-dependent downregulation | time-dependent upregulation | –
4 | CN(C)C(=N)N=C(N)N [Metformin, metformin] | – | – | – | – | 3 cases in 100,000 patients
5 | [H]/N=C(/N)N/C(=N/[H])NCCc1ccccc1 [Phenformin, phenformin] | – | – | – | – | 64 cases in 100,000 patients
